Patent publication US6825230B2, “Spiro and dispiro 1,2,4-trixolane antimalarials” (Medicines for Malaria Venture MMV, priority 2002, dated 2004)
In brackets after ≈: the same amount, converted by molar mass. Like-named read-outs stand apart in the source and are kept apart here.

Experiments:
[1] = system: Schistosoma mansoni 21-day-old schistosomules; assay: Effect on 21-day-old schistosomules in infected mice; format: in vivo; details: for % reduction of schistosomule growth at day 21 after per os application of 200 mg/kg, FWR (%): female worm reduction rate
Experimental: Mice were infected with 100 Schistosoma mansoni cercariae on day 21 post-treatment. Each group was treated per os with trioxolanes at a single dose of 200 mg/kg. […] All groups were killed 4 weeks after treatment and the liver and intestine were removed and separated. The liver and intestine were compressed and alive male and female worms could be seen and counted. The effect of the compounds was evaluated by mean total and female worm burden.

[2] = system: Schistosoma mansoni adult worms (49-day-old); assay: Effect on adult schistosomes (49-day-old) in infected mice; format: in vivo; details: for % reduction of adult worms growth at day 49 after per os application of 400 mg/kg, TWR (%) / Adult worms day 49, per os 400 mg/kg, DEAD WORM (%): single 400 mg/kg per os
Experimental: Mice were infected with 100 Schistosoma mansoni cercariae on day 49 post-treatment. Each group was treated per os with OZ compounds at single doses of 200, 400, and 600 mg/kg. Untreated mice served as the control. All groups were killed 4 weeks after treatment and the liver and intestine were removed and separated. The liver and intestine were compressed and alive male and female worms could be seen and counted.

[3] = system: chloroquine-resistant K1 strain of P. falciparum; assay: In vitro antimalarial semiautomated microdilution assay ([3H]-hypoxanthine incorporation), K1 strain; format: cell-based, Plasmodium falciparum; details: for IC50: Plasmodium falciparum
How it was run: (§1)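 IC50 comes from Logit regression of [3H]-hypoxanthine incorporation data. Intraerythrocytic P. falciparum taken from asynchronous stock cultures is exposed to OZ compounds in a semiautomated microdilution format.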

[4] = system: ANKA strain of P. berghei; assay: Single dose STI in vivo screen in infected mice; set-up: species or system Plasmodium berghei; details: for Survival (days) 10 mg/kg po: single 10 mg/kg po in 3% ethanol and 7% Tween 80; for Survival (days) 10 mg/kg po / Survival (days) 10 mg/kg SSV po / Survival (days) 10 mg/kg sc: untreated 6-7 days; for Activity (%) 10 mg/kg po: single 10 mg/kg po in 3% ethanol and 7% Tween 80 on day 1 post-infection; for Activity (%) 10 mg/kg po / Activity (%) 10 mg/kg SSV po / Activity (%) 10 mg/kg sc: percent reduction in parasitemia on day 3; for Survival (days) 10 mg/kg SSV po: single 10 mg/kg po in SSV; for Activity (%) 10 mg/kg SSV po: single 10 mg/kg po in standard suspending vehicle (SSV) on day 1 post-infection; for Survival (days) 10 mg/kg sc: single 10 mg/kg sc in 3% ethanol and 7% Tween 80; for Activity (%) 10 mg/kg sc: single 10 mg/kg sc in 3% ethanol and 7% Tween 80 on day 1 post-infection
[5] = system: chloroquine-sensitive NF54 strain of P. falciparum; assay: In vitro antimalarial semiautomated microdilution assay ([3H]-hypoxanthine incorporation), NF54 strain; format: cell-based, Plasmodium falciparum; details: for IC50: Plasmodium falciparum
How it was run: as §1

[6] = single 200 mg/kg per os, 21-day-old schistosomules
[7] = single 200 mg/kg per os, 21-day-old schistosomules, total worm reduction rate
[8] = 49-day-old adults, total worm reduction rate
[9] = percentage of dead worm in the liver
[10] = K1, 72 h, read-out: IC50 (ng/ml) K1, chloroquine-resistant K1 strain, 72 h incubation
[11] = NF54, 72 h, read-out: IC50 (ng/ml) NF54, chloroquine-sensitive NF54 strain, 72 h incubation
[12] = chloroquine-resistant K1 strain, 72 h incubation, read-out: IC50 (ng/ml) K1
[13] = chloroquine-sensitive NF54 strain, 72 h incubation, read-out: IC50 (ng/ml) NF54

| Structure (SMILES) | % reduction of schistosomule growth at day 21 after per os application of 200 mg/kg, FWR (%) [1, 6] | % reduction of schistosomule growth at day 21 after per os application of 200 mg/kg, TWR (%) [1, 7] | % reduction of adult worms growth at day 49 after per os application of 400 mg/kg, TWR (%) [2, 8] | Adult worms day 49, per os 400 mg/kg, DEAD WORM (%) [2, 9] | Survival (days) 10 mg/kg po [4] | Activity (%) 10 mg/kg po [4] | Survival (days) 10 mg/kg SSV po [4] | Activity (%) 10 mg/kg SSV po [4] | Survival (days) 10 mg/kg sc [4] | Activity (%) 10 mg/kg sc [4] | IC50 [5, 11] | also measured |
| --- | --- | --- | --- | --- | --- | --- | --- | --- | --- | --- | --- | --- |
| CC1(C)COC2(CCC3(CC2)OOC2(CC(C)(C)CC(C)(C)C2)O3)OC1 [OZ36] | 12% | 16% | 0/0% | 0/0% |  |  |  |  |  |  |  |  |
| c1ccc(CNC2CCC3(CC2)OOC2(O3)C3CC4CC(C3)CC2C4)cc1 (stereo not drawn) [OZ160] | 0% | 0% |  |  | 6.3 days | 45% | 6.7 days | 43% | 12.0 days | 99.94% | 0.87 ng/mL (≈ 2.35 nM) | IC50 [3, 10]: 0.7 ng/mL (≈ 1.89 nM) |
| OC1CCC2(CC1)OOC1(O2)C2CC3CC(C2)CC1C3 (stereo not drawn) [OZ32] | 70% | 73% | 27% | 28% |  |  |  |  |  |  |  |  |
| C1COC2(CCC3(CC2)OOC2(O3)C3CC4CC(C3)CC2C4)O1 (stereo not drawn) [OZ10] | 73% | 66% | 28% | 13% |  |  |  |  |  |  |  | % reduction of adult worms growth at day 49 after per os application of 600 mg/kg, TWR (%) ([2]; single 600 mg/kg per os, 49-day-old adults, total worm reduction rate): 21%; Adult worms day 49, per os 600 mg/kg, DEAD WORM (%) ([2]; single 600 mg/kg per os, percentage of dead worm in the liver): 23% |
| O=C1CCC2(CC1)OOC1(CCCCCCCCCCC1)O2 [OZ21] | 0% | 0% | 0/0% | 0/0% |  |  |  |  |  |  |  |  |
| CCCC1CCC2(CC1)OOC1(O2)C2CC3CC(C2)CC1C3 (stereo not drawn) [OZ25] | 84% | 86% | 46% | 34% |  |  |  |  |  |  |  |  |
| C1CCCCCC2(CCCCC1)OOC1(O2)C2CC3CC(C2)CC1C3 (stereo not drawn) [OZ20] | 0% | 0% | 0/0% | 0/0% |  |  |  |  |  |  |  |  |
| NC[C@H]1CC[C@]2(CC1)OOC1(O2)C2CC3CC(C2)CC1C3 (stereo partly drawn) [OZ163] | 80% |  |  |  |  |  |  |  |  |  | 0.2 ng/mL (≈ 0.682 nM) | Survival (days) 10 mg/kg po ([4]; hydrochloride, 10 mg/kg): 8.0 days; Activity (%) 10 mg/kg po ([4]; hydrochloride, 10 mg/kg): 99.90%; Survival (days) 10 mg/kg SSV po ([4]; hydrochloride, 10 mg/kg): 9.0 days; Activity (%) 10 mg/kg SSV po ([4]; hydrochloride, 10 mg/kg): 99.94%; Survival (days) 10 mg/kg sc ([4]; hydrochloride, 10 mg/kg): 9.7 days; Activity (%) 10 mg/kg sc ([4]; hydrochloride, 10 mg/kg): 100% |
| OC[C@H]1CC[C@]2(CC1)OOC1(O2)C2CC3CC(C2)CC1C3 (stereo partly drawn) [OZ119] | 87% |  |  |  | 7.7 days | 99.29% | 8.0 days | 99.15% | 8.3 days | 99.66% |  | % reduction of schistosomule growth at day 21 after per os application of 200 mg/kg, TWR (%) ([1]; po, 200 mg/kg, 504 h): 88%; IC50 [3, 12]: 0.83 ng/mL (≈ 2.82 nM); IC50 [5, 13]: 0.2 ng/mL (≈ 0.679 nM) |
| OC12CC3CC(C1)C1(OOC4(CCC5(CC4)OCCO5)O1)C(C3)C2 (stereo not drawn) [OZ152, 5-Hydroxyadamantane-2-spiro-3′-1′,2′,4′,9′,12′-pentaoxadispiro[4.2.4.2]tetradecane] | 11% | 19% |  |  | 6.3 days |  |  |  |  |  |  | IC50 (ng/ml) K1 ([3]; chloroquine-resistant K1 strain, 72 h incubation): 3.2 ng/mL (≈ 9.46 nM); Activity (%) 10 mg/kg po ([4]; 10 mg/kg): 0%; Survival (days) 10 mg/kg SSV po ([4]; 10 mg/kg): 6.7 days; Activity (%) 10 mg/kg SSV po ([4]; 10 mg/kg): 12%; Survival (days) 10 mg/kg sc ([4]; 10 mg/kg): 6.7 days; Activity (%) 10 mg/kg sc ([4]; 10 mg/kg): 22%; IC50 (ng/ml) NF54 ([5]; chloroquine-sensitive NF54 strain, 72 h incubation): 7.2 ng/mL (≈ 21.3 nM) |
| O=[N+]([O-])c1ccc(N2CCC3(CC2)OOC2(O3)C3CC4CC(C3)CC2C4)cc1 (stereo not drawn) [OZ151, Adamantane-2-spiro-3′-8′-(4′-nitrophenyl)-1′,2′,4′-trioxa-8′-azaspiro[4.5]decane] | 19% |  |  |  | 7.3 days | 71% | 7.3 days | 71% | 11.0 days | 99.63% |  | % reduction of schistosomule growth at day 21 after per os application of 200 mg/kg, TWR (%) ([1]; po, 200 mg/kg, 504 h): 19%; IC50 [3, 12]: 3.8 ng/mL (≈ 9.83 nM); IC50 [5, 13]: 4 ng/mL (≈ 10.4 nM) |
| C1C2CC3CC1CC(C2)C31OOC2(CCC3(CC2)OOC2(O3)C3CC4CC(C3)CC2C4)O1 (stereo not drawn) [OZ169, Adamantane-2-spiro-3′-1′,2′,4′,9′,10′,12′-hexaoxadispiro[4.2.4.2]tetradecane-11′-spiro-2″-adamantane] | 0% | 0% |  |  | 7.7 days | 98% | 6.7 days | 22% | 9.0 days | 99.76% | > 10 ng/mL | IC50 [3, 10]: 15 ng/mL (≈ 33.7 nM) |
| CN1CCN(C(=O)N2CCC3(CC2)OOC2(O3)C3CC4CC(C3)CC2C4)CC1 (stereo not drawn) [OZ157, Adamantane-2-spiro-3′-8′-[(4′-methyl-1′-piperazinyl)carbonyl]-1′,2′,4′-trioxa-8′-azaspiro[4.5]decane] | 68% | 65% |  |  | 7.3 days | 90% | 8.3 days | 80% | 8.3 days | 97% | 0.22 ng/mL (≈ 0.562 nM) | IC50 [3, 10]: 0.2 ng/mL (≈ 0.511 nM) |
| C1CCN(C2CCC3(CC2)OOC2(O3)C3CC4CC(C3)CC2C4)CC1 (stereo not drawn) [OZ159] | 19% | 19% |  |  | 6.7 days | 34% | 6.7 days | 31% | 9.0 days | 98% | 0.94 ng/mL (≈ 2.71 nM) | IC50 [3, 10]: 0.7 ng/mL (≈ 2.01 nM) |
| c1cn(C[C@H]2CC[C@]3(CC2)OOC2(O3)C3CC4CC(C3)CC2C4)cn1 (stereo partly drawn) [OZ145] | 83% |  |  |  |  |  |  |  |  |  |  | % reduction of schistosomule growth at day 21 after per os application of 200 mg/kg, TWR (%) ([1]; po, 200 mg/kg, 504 h): 80%; IC50 [3, 12]: 0.5 ng/mL (≈ 1.45 nM); Survival (days) 10 mg/kg po ([4]; 10 mg/kg): 8.3 days; Activity (%) 10 mg/kg po ([4]; 10 mg/kg): 99.82%; Survival (days) 10 mg/kg SSV po ([4]; 10 mg/kg): 10.7 days; Activity (%) 10 mg/kg SSV po ([4]; 10 mg/kg): 99.21%; Survival (days) 10 mg/kg sc ([4]; 10 mg/kg): 10.7 days; Activity (%) 10 mg/kg sc ([4]; 10 mg/kg): 99.87%; IC50 [5, 13]: 0.76 ng/mL (≈ 2.21 nM) |
